Consider one sequence from US20260224674A1, “COMPOSITIONS COMPRISING PEDF-DERIVED SHORT PEPTIDES AND MESENCHYMAL STEM CELLS FOR BONE/CARTILAGE REGENERATION” (BRIM Biotechnology, Inc., priority 2022, published 2026).

For assay [1], the system named is human bone marrow-derived mesenchymal stem cells (hBM-MSC). The assay can be described thus: hBM-MSC spheroid chondrogenesis, Alcian Blue staining at day 14. Format: cell-based. To be noted: PDSP 10 μM, chondrogenic differentiation medium with TGFβ1 10 ng/ml. As for the experimental part:
To shed light on possible mechanisms for the effects of PDSP chondrogenesis, further experiments were conducted to assess the effects of PDSP on MSC. The MSC used in this study are human bone marrow-derived mesenchymal stem cells (hBM-MSC) from Gibco (StemPro™ BM Mesenchymal Stem Cells). […] Human bone marrow MSC spheroids were cultured with chondrogenic differentiation medium, with or without TGFβ1 and with or without PDSP. The media were changed every 3 days. On day 14, the cartilage spheroids were collected for evaluation. The various media compositions are as follows (the base medium is a high-glucose DMEM supplemented with 1×10^−7M dexamethasone, 1×10^−3M sodium pyruvate, 1.7×10^−4M L-ascorbic acid-2-phosphate, 3.5×10^−4M proline, 5 mL ITS+Premix in 500 mL medium, and 1% antibiotic): […]

The test system of assay [2] is ACLT surgery induced osteoarthritis mouse model. Kind of assay: Safranin O and H&E histological staining of the murine knee joints. Format: in vivo. To be noted: ACLT surgery induced OA mice; compared with non-treated OA groups. The protocol:
(§1) The OA murine model is induced by anterior cruciate ligament (ACLT) surgery. In brief, a medial arthrotomy was performed. With the knee in full flexion, the patella was dislocated laterally, the anterior cruciate ligament (ACLT) was transected, and then the wounds were closed.
(§2) The ACLT surgery was performed on the unilateral knees of each mouse for 2 months prior to the treatments. Twenty mice were randomly divided into 5 groups: (i) non-treated group [n=3]; (ii) vehicle-treated group [n=4]; (iii) PDSP-treated group [n=5], (iv) vehicle combined with IPFP-MSC-treated group [n=3]; (v) PDSP combined with IPFP-MSC-treated group [n=5] in ACLT surgery induced OA groups, while the knees without surgery serve as sham-operated group [n=4]. At eight weeks after ACLT surgery (first injection), the knee joints of the non-treated, vehicle-treated, or PDSP-treated groups were intra-articular injected, respectively, with 0.01 mL PBS, vehicle, or PDSP, while those of the vehicle or PDSP combined with IPFP-MSC groups were injected with hMSCs in 0.01 mL. MSCs were intra-articular injected at the first treatment only (i.e., at 8 weeks). For the second treatments (two weeks after MSC injections or 10 weeks after ACLT surgery), those of the vehicle or PDSP combined with IPFP-MSC injection groups were injected with 0.01 mL vehicle or PDSP. […]

For assay [3] the test system is unchanged. Kind of assay: OARSI histologic scoring of cartilage degradation in ACLT surgery induced OA murine model. The class given is in vivo. The protocol:
as §1, §2

The test system of another assay is type II collagen. Kind of assay: Type II collagen immunohistochemistry (IHC) staining of the murine knee joint. The class given is in vivo, mouse. The note with it: ACLT surgery induced OA mice; compared with non-treated and vehicle-treated OA groups. As for the experimental part:
as §1, §2

Another assay concerns type X collagen. The assay can be described thus: Type X collagen immunohistochemistry (IHC) staining of the murine knee joint. To be noted: ACLT surgery induced OA mice. Format: in vivo, mouse. As for the experimental part:
as §1, §2

As for “SLGAEQRTESIIHRALYYDLISSPDIHGT (listed as Homo sapiens) [PDSP, PEDF-derived short peptide]”, in assay [1], the “Cartilage spheroids size (total area)” value was “increase the cartilage spheroids size” and the “Chondrogenesis (Alcian blue positive area; differentiation of hBM-MSC into chondrocytes)” value is listed as “promote chondrogenesis”. Also, in assay [2], the “Cartilage loss and surface irregularity in the medial and lateral compartments (safranin O and H&E staining)” value is “less cartilage loss and surface irregularity”. Besides, the OARSI scores in assay [3] (ACLT surgery induced OA groups, text values with their spread (SEM per Table 2)) is reported as 3.47±0.19. Further, the “The histologic scoring of murine OA (OARSI score), Average” value in assay [3] (ACLT surgery induced osteoarthritis mice, intra-articular injection at 8 and 10 weeks after surgery, average over animals) turned out to be 3.47. Also, the “Expression of type II collagen (IHC)” value in the assay on type II collagen is “increased”. The “Type X collagen signals (IHC)” value with type X collagen is “decreased”.
